# In patent US11154540B2, “Methods of treating ophthalmic disease/disorder or injury with ibudilast” (MediciNova, Inc., priority 2018, dated 2021):
# “Also recorded” adds a separate entry of the source.
# Columns and labels:
# [1] = Sanftner et al., Xenobiotica 2009 39: 964-977; cited from earlier work
# [2] = test system: subjects with primary or secondary progressive multiple sclerosis; assay: Optical coherence tomography (OCT) outcomes in the SPRINT-MS phase II randomized, double-blind, placebo-controlled trial; type: in vivo, human
# Procedure: This was a multicenter, randomized, double-blind, placebo-controlled, parallel-group study designed to evaluate the safety, tolerability and activity of ibudilast administered twice daily over a 96 week period in subjects with primary or secondary progressive multiple sclerosis. The primary objectives of the study were: • to evaluate the activity of ibudilast (100 mg/d) versus placebo at 96 weeks as measured by quantitative magnetic resonance imaging (MRI) analysis for whole brain atrophy using brain parenchymal fraction (BPF); • to evaluate the safety and tolerability of ibudilast (100 mg/d) versus placebo administered orally in subjects with primary and secondary progressive multiple sclerosis; and • to study the effect of ibudilast on macular measures from the SPRINT-MS phase II trial of ibudilast in progressive MS. The major secondary objectives were to evaluate the activity of ibudilast at 96 weeks versus placebo as measured by: • Diffusion tensor imaging (DTI) in descending pyramidal white matter tracts; • Magnetization transfer ratio (MTR) imaging in normal-appearing brain tissue; • Retinal nerve fiber layer as measured by Optical coherence tomography (OCT); and • Cortical atrophy as measured by cortical longitudinal atrophy detection algorithm ([…] total of 255 male and female subjects from 21 to 65 years old, inclusive, were enrolled into one of two treatment arms (ibudilast 100 mg/d or matching-placebo). Study population for SPRINT-MS was a mix of primary (53%) and secondary progressive (47%) MS, average age 56 years and median expanded disability status scale (EDSS)=6.0 at baseline. Randomization of subjects was stratified by disease status ([…]), and by immunomodulating therapy status: “untreated”, glatiramer acetate (GA), or interferon-beta. Subjects were allowed to continue using of interferon-beta (IFN-β) or glatiramer acetate while participating in this study. During the study, subjects were allowed to change medications from one injectable to the other. Pegylated interferon beta-1 were also allowed (if approved by the FDA). Inhaled and topical steroids are allowed. If a relapse episode occurred, a single course of systemic corticosteroids was permitted, as prescribed by the treating neurologist. Subjects returned to the clinic for follow-up visits on a regular basis at Week 4, 8, 12, 24, 36, 48, 60, 72, 84 and 96. The double-blind Treatment Phase consisted of a Baseline visit followed by 10 scheduled clinic visits. The Baseline Visit had to have occurred within 45 days following the Screening Visit. At the Baseline Visit (Day 1), subjects who completed all of the screening assessments and continued to meet eligibility criteria were randomized to one of two treatment groups (ibudilast 100 mg/d or placebo) in a 1:1 ratio. […] Subjects took their first dose of study medication (30 mg ibudilast or placebo) on the evening of the Baseline Visit (Day 1). On the morning of Day 2, all subjects begun a 3 capsule BID dosing regimen through Day 14. Subjects randomized to ibudilast started at 60 mg/d (30 mg BID) on Day 2 and remained on 60 mg/d through Day 14. Beginning on Day 15, all subjects increased dosing to 5 capsules BID regimen; those randomized to the ibudilast treatment arm were taking 100 mg/d. After Day 15, subjects with intolerable side-effects (e.g., nausea, diarrhea, vertigo) were allowed to reduced their dose to either 4 capsules twice a day (80 mg/d for those taking ibudilast) or 3 capsules twice a day (60 mg/d for those taking ibudilast). Subjects with intolerable side-effects (e.g., nausea, diarrhea, vertigo) at the end of Day 14 were allowed to continue taking 3 capsules twice a day at the Investigator's discretion. At the Investigator's discretion, the daily dose of ibudilast were potentially adjusted between 3 capsules twice a day, 4 capsules twice a day, and 5 capsules twice a day over the first 8 weeks of treatment. […]
smiles,measurement,setting,value
"CC(C)C(=O)c1c(C(C)C)nn2ccccc12 [ibudilast, 3-isobutyryl-2-isopropylpyrazolo[1,5-a]pyridine]",CNS distribution / penetration (in words),[1],distributes well to the CNS; also recorded: good CNS penetration
same,macular volume loss and GCIP layer thinning (in words),[2]; Cirrus OCT,favorable changes towards reduced macular volume loss and GCIP layer thinning
same,"rate of macular volume loss, between-group difference per year","[2]; Cirrus OCT, ibudilast vs placebo, 95% CI: −0.0090 to 0.0499",0.0204 mm^3
same,"ganglion cell-inner plexiform layer thinning, between-group difference per year","[2]; Cirrus OCT, ibudilast vs placebo, 95% CI: −0.1189 to 1.0578",0.469 µm/year
same,annual macular volume loss compared to placebo (in words),[2]; Spectralis OCT over 96 weeks,slower
same,"rate of macular volume loss, between-group difference per year","[2]; Spectralis OCT, ibudilast vs placebo, 95% CI: 0.0008 to 0.0623",0.0316 mm^3
same,estimated rate of macular volume change per year,"[2]; patients followed with Cirrus OCT, 95% CI: −0.02167 to 0.020866, placebo −0.02083, p=0.1734",−0.0004 mm^3
same,estimated rate of macular volume change per year,"[2]; patients followed with Spectralis OCT, 95% CI: −0.02693 to 0.01688, placebo −0.03659, p=0.044",−0.00503 mm^3
